From publication PMC11151825 (RSC Chemical Biology, 2024)
Where two headings read alike, the source gives them in different places. Square brackets hold non-standard residues; d marks the D form. Peptide text beside a SMILES is read from it. Abu = CC[C@H](N)C(=O)O

Experiments:
[1] = the molecule shown is the open-chain precursor, 3 steps
human C5aR1 = human C5aR1 (Homo sapiens, UniProt P21730); test: cell-based; details: SEM
[2] = the molecule shown is the open-chain precursor
[3] = the molecule shown is the open-chain precursor; remark: listed apart in the source

Sequence of human C5aR1 (P21730 whole entry): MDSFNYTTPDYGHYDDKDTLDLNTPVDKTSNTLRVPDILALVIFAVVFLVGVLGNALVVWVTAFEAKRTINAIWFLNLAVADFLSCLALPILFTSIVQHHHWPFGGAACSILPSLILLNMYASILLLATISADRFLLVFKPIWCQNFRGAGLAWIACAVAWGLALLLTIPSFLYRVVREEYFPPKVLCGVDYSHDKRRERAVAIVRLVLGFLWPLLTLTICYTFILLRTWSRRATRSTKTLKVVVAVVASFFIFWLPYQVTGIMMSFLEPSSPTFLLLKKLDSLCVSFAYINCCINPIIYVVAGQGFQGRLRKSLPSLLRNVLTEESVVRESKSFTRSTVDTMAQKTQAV

CC(C)CC(NCCCC[C@@H]1NC(=O)[C@@H](Cc2c[nH]c3ccccc23)NC(=O)[C@H](Cc2ccccc2)NC(=O)[C@@H](NC(=O)[C@H](N)Cc2ccccc2)CSSC[C@@H](C(=O)N[C@H](C(=O)N[C@H](C(=O)N[C@H]2CSSC[C@@H]3NC(=O)CNC(=O)[C@@H]4CCCN4C(=O)[C@H]([C@@H](C)O)NC(=O)[C@H](CC(N)=O)NC(=O)[C@@H]4CSSC[C@@H](C(=O)N[C@H](C(=O)O)[C@@H](C)O)NC(=O)[C@H](C(C)C)NC(=O)[C@@H]5CCCN5C(=O)[C@H](Cc5c[nH]c6ccccc56)NC(=O)[C@H](CO)NC(=O)[C@H](CSSC[C@H](NC(=O)[C@H]([C@@H](C)O)NC(=O)[C@H](CCC(N)=O)NC(=O)CNC2=O)C(=O)N[C@@H](C(C)C)C(=O)NCC(=O)NCC(=O)N[C@@H]([C@@H](C)O)C(=O)N4)NC(=O)[C@H]([C@@H](C)O)NC3=O)C(C)C)[C@@H](C)O)NC(=O)[C@H]([C@@H](C)O)NC1=O)=C1C(=O)CC(C)(C)CC1=O
ring closure, yield over several steps ([1]; 96-membered ring): 16.1%

CC(C)CC(NCCCC[C@H](NC(=O)[C@@H](N)Cc1ccccc1)C(=O)N1CCC[C@H]1C(=O)N[C@@H](CC(C)C)C(=O)N[C@@H](C)C(=O)N[C@@H](C)C(=O)N[C@H](C)C(=O)N[C@@H](CCCNC(=N)N)C(=O)N[C@H](C(=O)N[C@H]1CSSC[C@@H]2NC(=O)CNC(=O)[C@@H]3CCCN3C(=O)[C@H]([C@@H](C)O)NC(=O)[C@H](CC(N)=O)NC(=O)[C@@H]3CSSC[C@@H](C(=O)N[C@H](C(=O)O)[C@@H](C)O)NC(=O)[C@H](C(C)C)NC(=O)[C@@H]4CCCN4C(=O)[C@H](Cc4c[nH]c5ccccc45)NC(=O)[C@H](CO)NC(=O)[C@H](CSSC[C@H](NC(=O)[C@H]([C@@H](C)O)NC(=O)[C@H](CCC(N)=O)NC(=O)CNC1=O)C(=O)N[C@@H](C(C)C)C(=O)NCC(=O)NCC(=O)N[C@@H]([C@@H](C)O)C(=O)N3)NC(=O)[C@H]([C@@H](C)O)NC2=O)C(C)C)=C1C(=O)CC(C)(C)CC1=O
ring closure, yield over several steps ([1]; 96-membered ring): 22%

CC[C@H](C)[C@@H]1NC(=O)[C@@H]2CCCN2C(=O)[C@@H]2CCCN2C(=O)[C@H]([C@@H](C)CC)NC(=O)[C@H](CO)NC(=O)[C@H](CCCCNC(CC(C)C)=C2C(=O)CC(C)(C)CC2=O)NC(=O)[C@H]([C@@H](C)O)NC(=O)[C@@H](NC(=O)CN)CSSC[C@@H](C(=O)NCC(=O)N[C@H](C(=O)N[C@H]2CSSC[C@@H]3NC(=O)CNC(=O)[C@@H]4CCCN4C(=O)[C@H]([C@@H](C)O)NC(=O)[C@H](CC(N)=O)NC(=O)[C@@H]4CSSC[C@@H](C(=O)N[C@H](C(=O)O)[C@@H](C)O)NC(=O)[C@H](C(C)C)NC(=O)[C@@H]5CCCN5C(=O)[C@H](Cc5c[nH]c6ccccc56)NC(=O)[C@H](CO)NC(=O)[C@H](CSSC[C@H](NC(=O)[C@H]([C@@H](C)O)NC(=O)[C@H](CCC(N)=O)NC(=O)CNC2=O)C(=O)N[C@@H](C(C)C)C(=O)NCC(=O)NCC(=O)N[C@@H]([C@@H](C)O)C(=O)N4)NC(=O)[C@H]([C@@H](C)O)NC3=O)C(C)C)NC1=O
ring closure, yield over several steps ([1]; 105-membered ring): 18.7%

CC[C@H](C)[C@H](NC(=O)[C@H](CCCNC(=N)N)NC(=O)[C@H](CCCNC(=N)N)NC(=O)[C@H](CC(C)C)NC(=O)[C@H](Cc1ccccc1)NC(=O)CNC(=O)CNC(=O)[C@@H](N)Cc1ccc(O)cc1)C(=O)N[C@@H](CCCNC(=N)N)C(=O)N1CCC[C@H]1C(=O)N[C@@H](CCCCNC(CC(C)C)=C1C(=O)CC(C)(C)CC1=O)C(=O)N[C@@H](CC(C)C)C(=O)N[C@@H](CCCCNC(CC(C)C)=C1C(=O)CC(C)(C)CC1=O)C(=O)NCC(=O)N[C@H]1CSSC[C@@H]2NC(=O)[C@H](C(C)C)NC(=O)[C@@H]3CCCN3C(=O)[C@H](CC(C)C)NC(=O)CNC(=O)[C@H](CC(N)=O)NC(=O)[C@H](CCCNC(=N)N)NC(=O)[C@H]([C@@H](C)O)NC(=O)[C@@H]3CSSC[C@@H](C(=O)N[C@@H](CC(N)=O)C(=O)O)NC(=O)[C@H]([C@@H](C)O)NC(=O)CNC(=O)CNC(=O)[C@H](C(C)C)NC(=O)[C@H](CSSC[C@H](NC(=O)[C@H]([C@@H](C)O)NC1=O)C(=O)N[C@@H](CO)C(=O)N[C@@H](Cc1c[nH]c4ccccc14)C(=O)N1CCC[C@H]1C(=O)N[C@@H](C(C)C)C(=O)N3)NC(=O)[C@H]([C@@H](C)O)NC(=O)[C@H](CCC(N)=O)NC(=O)CNC2=O
ring closure, yield over several steps ([1]; 120-membered ring): 11.2%

CC[C@H](C)[C@H](NC(=O)[C@H](CCCNC(=N)N)NC(=O)[C@H](CCCNC(=N)N)NC(=O)[C@H](CC(C)C)NC(=O)[C@H](Cc1ccccc1)NC(=O)CNC(=O)CNC(=O)[C@@H](N)Cc1ccc(O)cc1)C(=O)N[C@@H](CCCNC(=N)N)C(=O)N1CCC[C@H]1C(=O)N[C@@H](CCCCNC(CC(C)C)=C1C(=O)CC(C)(C)CC1=O)C(=O)N[C@@H](CC(C)C)C(=O)N[C@@H](CCCCNC(CC(C)C)=C1C(=O)CC(C)(C)CC1=O)C(=O)N[C@H](C(=O)N[C@H]1CSSC[C@@H]2NC(=O)CNC(=O)[C@@H]3CCCN3C(=O)[C@H]([C@@H](C)O)NC(=O)[C@H](CC(N)=O)NC(=O)[C@@H]3CSSC[C@@H](C(=O)N[C@H](C(=O)O)[C@@H](C)O)NC(=O)[C@H](C(C)C)NC(=O)[C@@H]4CCCN4C(=O)[C@H](Cc4c[nH]c5ccccc45)NC(=O)[C@H](CO)NC(=O)[C@H](CSSC[C@H](NC(=O)[C@H]([C@@H](C)O)NC(=O)[C@H](CCC(N)=O)NC(=O)CNC1=O)C(=O)N[C@@H](C(C)C)C(=O)NCC(=O)NCC(=O)N[C@@H]([C@@H](C)O)C(=O)N3)NC(=O)[C@H]([C@@H](C)O)NC2=O)C(C)C
ring closure, yield over several steps ([1]; 111-membered ring): 17.4%

CC[C@H](C)[C@H](NC(=O)[C@H](CCCNC(=N)N)NC(=O)[C@H](CCCNC(=N)N)NC(=O)[C@H](CC(C)C)NC(=O)[C@H](Cc1ccccc1)NC(=O)CNC(=O)CNC(=O)[C@@H](N)Cc1ccc(O)cc1)C(=O)N[C@@H](CCCNC(=N)N)C(=O)N1CCC[C@H]1C(=O)N[C@@H](CCCCNC(CC(C)C)=C1C(=O)CC(C)(C)CC1=O)C(=O)N[C@@H](CC(C)C)C(=O)N[C@@H](CCCCNC(CC(C)C)=C1C(=O)CC(C)(C)CC1=O)C(=O)N[C@H](C(=O)N[C@H]1CSSC[C@@H]2NC(=O)[C@H]([C@@H](C)O)NC(=O)CNC(=O)CNC(=O)[C@H](C(C)C)NC(=O)[C@@H]3CSSC[C@@H](C(=O)N[C@@H](CO)C(=O)O)NC(=O)[C@H]([C@@H](C)O)NC(=O)[C@H](CSSC[C@H](NC(=O)[C@H](C(C)C)NC(=O)[C@@H]4CCCN4C(=O)[C@H](CC(C)C)NC(=O)CNC(=O)[C@H](CC(N)=O)NC(=O)[C@H](CCCNC(=N)N)NC(=O)[C@H]([C@@H](C)O)NC1=O)C(=O)NCC(=O)N[C@@H](CCC(N)=O)C(=O)N[C@@H]([C@@H](C)O)C(=O)N3)NC(=O)CNC(=O)[C@@H]1CCCN1C(=O)[C@H]([C@@H](C)O)NC(=O)[C@H](CC(N)=O)NC2=O)C(C)C
ring closure, yield over several steps ([1]; 120-membered ring): 7.1%

CC[C@H](NC(=O)[C@H](C)NC(=O)[C@H](CC(C)C)NC(=O)[C@@H]1CCCN1C(=O)[C@H](CCCCNC(CC(C)C)=C1C(=O)CC(C)(C)CC1=O)NC(=O)[C@@H](N)Cc1ccccc1)C(=O)N[C@H](C)C(=O)N[C@@H](CCCNC(=N)N)C(=O)N[C@H](C(=O)N[C@H]1CSSC[C@@H]2NC(=O)CNC(=O)[C@@H]3CCCN3C(=O)[C@H]([C@@H](C)O)NC(=O)[C@H](CC(N)=O)NC(=O)[C@@H]3CSSC[C@@H](C(=O)N[C@H](C(=O)O)[C@@H](C)O)NC(=O)[C@H](C(C)C)NC(=O)[C@@H]4CCCN4C(=O)[C@H](Cc4c[nH]c5ccccc45)NC(=O)[C@H](CO)NC(=O)[C@H](CSSC[C@H](NC(=O)[C@H]([C@@H](C)O)NC(=O)[C@H](CCC(N)=O)NC(=O)CNC1=O)C(=O)N[C@@H](C(C)C)C(=O)NCC(=O)NCC(=O)N[C@@H]([C@@H](C)O)C(=O)N3)NC(=O)[C@H]([C@@H](C)O)NC2=O)C(C)C
ring closure, yield over several steps ([1]; 96-membered ring): 1.1%

CC[C@H](NC(=O)[C@H](C)NC(=O)[C@H](CC(C)C)NC(=O)[C@@H]1CCCN1C(=O)[C@H](CCCCN)NC(=O)[C@@H](N)Cc1ccccc1)C(=O)N[C@H](C)C(=O)N[C@@H](CCCNC(=N)N)C(=O)O [BM221] (H-FKPLA[Abu][dA]R-OH)
EC50 (human C5aR1): 2.8 ± 0.9 nM

H-GCTCSWPVCTRNGLPVCGQTCVGGTCN-OH (6 free Cys)
ring closure, conversion by HPLC (% (HPLC peak area)) [2]: 9.5 | ring closure, conversion by HPLC (% (HPLC peak area)) [3]: 2.6

H-GCYFQNCPRGVCGQTCVGGTCNTPGCTCSWPVCT-OH (epitope Cys2-Cys7 disulfide; scaffold I-IV, II-V, III-VI)
ring closure, yield over several steps ([1]; 102-membered ring): 1.7%

H-GCYIQNCPLGVCGQTCVGGTCNTPGCTCSWPVCT-OH (epitope Cys2-Cys7 disulfide; scaffold I-IV, II-V, III-VI)
ring closure, yield over several steps ([1]; 102-membered ring): 10.9%

H-RNGLPVCGETCVGGTCNTPGCTCSWPVCT-OH (disulfides I-IV, II-V, III-VI)
ring closure, yield over several steps ([1]; 87-membered ring): 10.6%

H-RNGLPVCGQTCVGGTCNTPGCTCSWPVCT-OH (disulfides I-IV, II-V, III-VI)
ring closure, yield over several steps ([1]; 87-membered ring): 24.8%

H-TCNTPGCTCSWPVCTRNGLPVCGQTCV-OH (6 free Cys)
ring closure, conversion by HPLC (% (HPLC peak area)) [2]: 8.1 | ring closure, conversion by HPLC (% (HPLC peak area)) [3]: 3.7

H-VCGATCVGGTCNTPGCTCSWPVCT-OH (6 free Cys)
ring closure, conversion by HPLC (% (HPLC peak area)) [2]: 4.6 | ring closure, conversion by HPLC (% (HPLC peak area)) [3]: 3.8

H-VCGETCVGGTCNTPGCTCSWPVCT-OH (6 free Cys)
ring closure, conversion by HPLC (% (HPLC peak area)) [2]: 23.4 | ring closure, conversion by HPLC (% (HPLC peak area)) [3]: 15.4

H-VCGQTCVGGTCNTPGCTCSWPVCT-OH (6 free Cys)
ring closure, conversion by HPLC (% (HPLC peak area)) [2]: 16.1 | ring closure, conversion by HPLC (% (HPLC peak area)) [3]: 9.4

H-VCTRNGLPVCGQTCVGGTCNTPGCTCS-OH (6 free Cys)
ring closure, conversion by HPLC (% (HPLC peak area)) [2]: 30.5 | ring closure, conversion by HPLC (% (HPLC peak area)) [3]: 27

cyclo-(CGQTCVGGTCNTPGCTCSWPVCTRNGLPV) (6 free Cys)
ring closure, conversion by HPLC (% (HPLC peak area)) [2]: 26.1 | ring closure, conversion by HPLC (% (HPLC peak area)) [3]: 23.5
